PubChem BioAssay AID504478 (NMMLSC, 2011)

Molecular target: Serine/threonine-protein kinase SCH9 (Saccharomyces cerevisiae (strain ATCC 204508 / S288c)) (UniProt P11792)
Test: reduction of phospho-Sch9 levels in yeast cells – cell-based, HA-Sch9, immunoblot, mechanism study for yeast TOR pathway modulator project, SAR follow-up (AID 504478)
Conditions: S. cerevisiae HA-Sch9, T570 phospho immunoblot, 30 min

Sequence of Serine/threonine-protein kinase SCH9 (Saccharomyces cerevisiae (strain ATCC 204508 / S288c)) (P11792 whole entry, looked up): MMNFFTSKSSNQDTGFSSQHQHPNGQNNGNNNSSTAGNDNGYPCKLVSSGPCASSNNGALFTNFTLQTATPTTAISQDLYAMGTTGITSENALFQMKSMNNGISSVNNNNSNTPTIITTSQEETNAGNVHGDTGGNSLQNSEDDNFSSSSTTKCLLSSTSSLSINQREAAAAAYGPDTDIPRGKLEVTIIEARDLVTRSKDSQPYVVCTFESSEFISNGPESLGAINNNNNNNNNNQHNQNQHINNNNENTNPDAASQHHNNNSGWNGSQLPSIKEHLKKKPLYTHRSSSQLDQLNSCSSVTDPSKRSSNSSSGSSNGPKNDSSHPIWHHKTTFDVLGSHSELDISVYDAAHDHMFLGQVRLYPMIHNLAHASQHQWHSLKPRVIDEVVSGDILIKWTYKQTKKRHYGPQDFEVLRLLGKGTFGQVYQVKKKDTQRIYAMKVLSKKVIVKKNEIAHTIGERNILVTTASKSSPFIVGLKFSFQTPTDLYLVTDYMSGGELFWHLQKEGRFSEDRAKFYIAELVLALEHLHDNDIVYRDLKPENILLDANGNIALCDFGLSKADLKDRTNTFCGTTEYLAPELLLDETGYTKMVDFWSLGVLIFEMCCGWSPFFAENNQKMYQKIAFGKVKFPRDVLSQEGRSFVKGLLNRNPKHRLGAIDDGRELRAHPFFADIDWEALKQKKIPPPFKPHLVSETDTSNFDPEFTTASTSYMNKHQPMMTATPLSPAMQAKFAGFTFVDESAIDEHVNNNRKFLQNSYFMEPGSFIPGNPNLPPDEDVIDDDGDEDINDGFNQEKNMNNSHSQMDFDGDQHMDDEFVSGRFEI

## CNc1nc(N)c([N+](=O)[O-])c(Nc2cccc(F)c2)n1
  IC50: 4.5 µM
